Key:
[1] = system: blackgrass; experiment: Test B pre/postemergence blackgrass; format: in vivo, Alopecurus myosuroides
In short: (§1)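 Response is a visual 0-to-10 score relative to untreated plants, where 0 means no effect and 10 means complete control, taken twelve to sixteen days after application. Treatments went onto soil at planting and onto foliage of 1- to 4-leaf plants, using a surfactant-containing non-phytotoxic solvent.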

[2] = system: cocklebur; experiment: Test B pre/postemergence cocklebur; format: in vivo, Xanthium strumarium
In short: as §1

[3] = system: giant foxtail; experiment: Test B pre/postemergence giant foxtail; format: in vivo, Setaria faberii
In short: as §1

[4] = system: morningglory; experiment: Test B pre/postemergence morningglory; format: in vivo, Ipomoea hederacea
In short: as §1

[5] = system: pigweed; experiment: Test B pre/postemergence pigweed; format: in vivo, Amaranthus retroflexus
In short: as §1

[6] = system: rape; experiment: Test B pre/postemergence rape; format: in vivo, Brassica napus
In short: as §1

[7] = system: soybean; experiment: Test B pre/postemergence soybean; format: in vivo, Glycine max
In short: as §1

[8] = system: sugar beet; experiment: Test B pre/postemergence sugar beet; format: in vivo, Beta vulgaris
In short: as §1

[9] = system: velvetleaf; experiment: Test B pre/postemergence velvetleaf; format: in vivo, Abutilon theophrasti
In short: as §1

[10] = system: wheat; experiment: Test B pre/postemergence wheat; format: in vivo, Triticum aestivum
In short: as §1

[11] = system: wild oat; experiment: Test B pre/postemergence wild oat; format: in vivo, Avena fatua
In short: as §1

[12] = system: purple nutsedge; experiment: Test B pre/postemergence purple nutsedge; format: in vivo, Cyperus rotundus
In short: as §1

[13] = system: rice; experiment: Test B flood test rice; format: in vivo, Oryza sativa
In short: (§2)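 Each value is a visual injury score relative to controls, with 10 meaning complete control and 0 no effect. Evaluation took place twelve to sixteen days after the 2-leaf-stage plants were treated and kept in the greenhouse.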

[14] = system: smallflower flatsedge; experiment: Test B flood test smallflower flatsedge; format: in vivo, Cyperus difformis; details: for S. Flatsedge plant response rating: scale of 0 to 10 where 0 is no effect and 10 is complete control
In short: as §2

[15] = system: duck salad; experiment: Test B flood test duck salad; format: in vivo, Heteranthera limosa
In short: as §2

[16] = system: bamyardgrass; experiment: Test B flood test barnyardgrass; format: in vivo, Echinochloa crus-galli
In short: as §2

[17] = Postemergence, Rate 125 g/ha, scale of 0 to 10 where 0 is no effect and 10 is complete control
[18] = Preemergence, Rate 31 g/ha, visual rating, scale 0 to 10 (0 no effect, 10 complete control)
[19] = Preemergence, Rate 62 g/ha, scale 0 to 10 (0 no effect, 10 complete control)
[20] = Preemergence, Rate 125 g/ha, 0 is no effect, 10 is complete control
[21] = Preemergence, Rate 250 g/ha, scale 0 to 10, 0 is no effect, 10 is complete control
[22] = Rate 31 g/ha, Postemergence, scale 0 to 10
[23] = Rate 62 g/ha, Postemergence, scale of 0 to 10 where 0 is no effect and 10 is complete control
[24] = Rate 250 g/ha, Postemergence, scale 0 to 10, 0 is no effect, 10 is complete control
[25] = Postemergence (flood test species), Rate 125 g/ha, scale of 0 to 10 where 0 is no effect and 10 is complete control
[26] = Rate 31 g/ha, Postemergence section (flood test species), scale 0 to 10
[27] = Rate 62 g/ha, Postemergence section, flood test species, scale of 0 to 10 where 0 is no effect and 10 is complete control
[28] = Rate 250 g/ha, Postemergence (flood test), scale 0 to 10, 0 is no effect, 10 is complete control

## Cc1noc(C)c1-n1c(=O)on(C(=O)N(c2ccc(F)cc2F)C(C)C)c1=O [Compound 156]
[1]; [17]
  Blackgrass plant response rating: 0
[1]; [18]
  Blackgrass plant response rating: 0
[1]; [19]
  Blackgrass plant response rating: 0
[1]; [20]
  Blackgrass plant response rating (0 to 10 scale): 0
[1]; [21]
  Blackgrass plant response rating: 3
[1]; [22]
  Blackgrass plant response rating: 0
[1]; [23]
  Blackgrass plant response rating: 0
[1]; [24]
  Plant response rating, Blackgrass: 0
[2]; [17]
  Cocklebur plant response rating: 0
[2]; [18]
  Cocklebur plant response rating: 0
[2]; [19]
  Cocklebur plant response rating: 0
[2]; [20]
  Cocklebur plant response rating (0 to 10 scale): 0
[2]; [21]
  Cocklebur plant response rating: 0
[2]; [22]
  Cocklebur plant response rating: 0
[2]; [23]
  Cocklebur plant response rating: 0
[2]; [24]
  Plant response rating, Cocklebur: 0
[3]; [17]
  Giant foxtail plant response rating: 0
[3]; [18]
  Giant foxtail plant response rating: 0
[3]; [19]
  Giant foxtail plant response rating: 0
[3]; [20]
  Giant foxtail plant response rating (0 to 10 scale): 2
[3]; [21]
  Giant foxtail plant response rating: 7
[3]; [22]
  Giant foxtail plant response rating: 0
[3]; [23]
  Giant foxtail plant response rating: 0
[3]; [24]
  Plant response rating, Giant foxtail: 0
[4]; [17]
  Morningglory plant response rating: 1
[4]; [18]
  Morningglory plant response rating: 0
[4]; [19]
  Morningglory plant response rating: 0
[4]; [20]
  Morningglory plant response rating (0 to 10 scale): 0
[4]; [21]
  Morningglory plant response rating: 0
[4]; [22]
  Morningglory plant response rating: 0
[4]; [23]
  Morningglory plant response rating: 0
[4]; [24]
  Plant response rating, Morningglory: 2
[5]; [17]
  Redroot pigweed plant response rating: 0
[5]; [18]
  Redroot pigweed plant response rating: 0
[5]; [19]
  Redroot pigweed plant response rating: 0
[5]; [20]
  Redroot pigweed plant response rating (0 to 10 scale): 4
[5]; [21]
  Redroot pigweed plant response rating: 9
[5]; [22]
  Redroot pigweed plant response rating: 0
[5]; [23]
  Redroot pigweed plant response rating: 0
[5]; [24]
  Plant response rating, Redroot pigweed: 0
[6]; [17]
  Rape plant response rating: 0
[6]; [18]
  Rape plant response rating: 0
[6]; [19]
  Rape plant response rating: 0
[6]; [20]
  Rape plant response rating (0 to 10 scale): 0
[6]; [21]
  Rape plant response rating: 0
[6]; [22]
  Rape plant response rating: 0
[6]; [23]
  Rape plant response rating: 0
[6]; [24]
  Plant response rating, Rape: 0
[7]; [17]
  Soybean plant response rating: 1
[7]; [18]
  Soybean plant response rating: 0
[7]; [19]
  Soybean plant response rating: 0
[7]; [20]
  Soybean plant response rating (0 to 10 scale): 0
[7]; [21]
  Soybean plant response rating: 0
[7]; [23]
  Soybean plant response rating: 1
[7]; [24]
  Plant response rating, Soybean: 1
[8]; [17]
  Sugarbeets plant response rating: 0
[8]; [18]
  Sugarbeets plant response rating: 0
[8]; [19]
  Sugarbeets plant response rating: 0
[8]; [20]
  Sugarbeets plant response rating (0 to 10 scale): 0
[8]; [21]
  Sugarbeets plant response rating: 0
[8]; [23]
  Sugarbeets plant response rating: 0
[8]; [24]
  Plant response rating, Sugarbeets: 0
[9]; [18]
  Velvetleaf plant response rating: 0
[9]; [19]
  Velvetleaf plant response rating: 0
[9]; [20]
  Velvetleaf plant response rating (0 to 10 scale): 0
[9]; [21]
  Velvetleaf plant response rating: 0
[9]; [23]
  Velvetleaf plant response rating: 0
[9]; [24]
  Plant response rating, Velvetleaf: 0
[10]; [18]
  Wheat plant response rating: 0
[10]; [19]
  Wheat plant response rating: 0
[10]; [20]
  Wheat plant response rating (0 to 10 scale): 0
[10]; [21]
  Wheat plant response rating: 0
[10]; [23]
  Wheat plant response rating: 0
[10]; [24]
  Plant response rating, Wheat: 0
[11]; [18]
  Wild oats plant response rating: 0
[11]; [19]
  Wild oats plant response rating: 0
[11]; [20]
  Wild oats plant response rating (0 to 10 scale): 0
[11]; [21]
  Wild oats plant response rating: 0
[11]; [23]
  Wild oats plant response rating: 0
[11]; [24]
  Plant response rating, Wild oats: 0
[12]; [17]
  Nutsedge plant response rating: 0
[12]; [18]
  Nutsedge plant response rating: 0
[12]; [19]
  Nutsedge plant response rating: 0
[12]; [20]
  Nutsedge plant response rating (0 to 10 scale): 0
[12]; [21]
  Nutsedge plant response rating: 0
[12]; [22]
  Nutsedge plant response rating: 0
[12]; [23]
  Nutsedge plant response rating: 0
[12]; [24]
  Plant response rating, Nutsedge: 0
[13]; [25]
  Rice plant response rating: 0
[13]; [26]
  Rice plant response rating: 0
[13]; [27]
  Rice plant response rating: 0
[13]; [28]
  Plant response rating, Rice: 0
[14]; Postemergence (flood test species), Rate 125 g/ha
  S. Flatsedge plant response rating: 0
[14]; Rate 62 g/ha, Postemergence section, flood test species
  S. Flatsedge plant response rating: 0
[14]; [28]
  Plant response rating, S. Flatsedge: 0
[15]; [25]
  Ducksalad plant response rating: 0
[15]; [26]
  Ducksalad plant response rating: 0
[15]; [27]
  Ducksalad plant response rating: 0
[15]; [28]
  Plant response rating, Ducksalad: 0
[16]; [25]
  Barnyardgrass plant response rating: 0
[16]; [26]
  Barnyardgrass plant response rating: 0
[16]; [27]
  Barnyardgrass plant response rating: 0
[16]; [28]
  Plant response rating, Barnyardgrass: 0

From patent publication US6737383B1, “Herbicidal oxadiazolidines” (priority 1999, dated 2004)
